Measured values as given in ChEMBL document CHEMBL1201862, “PubChem BioAssay data set” (2004).
Activity calls are given as the source filed them.

Key:
[1] = Luminescence-based dose response cell-based high throughput screening assay for cytotoxic compounds using the IEC-6 intestinal epithelial cell line. [Related pubchem assays: 1858 (Summary AID.), 1825 (Counterscreen.), 1907 (Confirmation screen.)]; assay type: functional
[2] = OV-90 cell viability loss – plate reader, dry powder, SA8, PAX8 inhibitor project, dose response (AID 743149); assay type: functional, cell-based
[3] = inhibitors acting on PAX2 in cells – cell-based, plate reader, dry powder samples, selectivity assay for PAX8 inhibitor project, dose response (AID 743048); assay type: functional;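 also: HEK293 cells carrying a WT1 promoter luciferase reporter driven by expressed Pax2; potency is for inhibition of Pax2 driven reporter signal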
[4] = COV434 cell viability loss – plate reader, dry powder, SA7, cytotoxicity control for PAX8 inhibitor project, dose response (AID 743145); assay type: functional, cell-based
[5] = toxicity toward immortalized ovarian surface epithelium – cell-based, plate reader, dry powder samples, cytotoxicity control for PAX8 inhibitor project, dose response (AID 743045); assay type: functional
[6] = molecular target: T1, Type-1 angiotensin II receptor (Homo sapiens, UniProt P30556); assay: antagonism of angiotensin II type 1 receptor – cell-based, uHTS hits, selectivity assay for APJ receptor antagonist project, dose response (AID 463214); assay type: functional;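 also: antagonist potency against angiotensin II stimulated AT1 response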
T1 sequence (P30556 whole entry): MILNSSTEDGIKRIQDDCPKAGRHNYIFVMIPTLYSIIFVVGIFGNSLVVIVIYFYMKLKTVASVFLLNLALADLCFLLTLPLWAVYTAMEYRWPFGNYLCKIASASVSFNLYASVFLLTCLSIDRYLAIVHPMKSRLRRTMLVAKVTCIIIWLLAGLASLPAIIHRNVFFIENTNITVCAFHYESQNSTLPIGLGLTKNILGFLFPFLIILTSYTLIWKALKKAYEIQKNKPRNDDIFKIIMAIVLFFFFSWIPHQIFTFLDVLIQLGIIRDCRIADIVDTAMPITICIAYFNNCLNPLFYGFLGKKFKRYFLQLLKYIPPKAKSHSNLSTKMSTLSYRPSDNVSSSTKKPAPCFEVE

Streptococcus = assay: GAS UMAA2166 growth inhibition – luminescence, BacTiterGlo, counter-screen for streptokinase expression inhibitor project, dose response (AID 1915); assay type: functional, organism-based;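 also: potency for reduction of bacterial viability or growth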
[7] = IGROV1 cell killing – plate reader, dry powder samples, PAX8 inhibitor project, dose response (AID 743043); assay type: functional, cell-based; settings: IGROV-1
HEK293 [8] = assay: HEK293T cell viability loss, resazurin readout – resazurin fluorescence, cytotoxicity control for NF-kB activator project, SAR follow-up (AID 493251); assay type: functional, cell-based; settings: Homo sapiens
[9] = COV362 cell viability loss – plate reader, dry powder, SA12, cytotoxicity control for PAX8 inhibitor project, dose response (AID 743144); assay type: functional, cell-based
HEK293 [10] = assay: SAR Analysis of small molecule inhibitors of both B-cell and T-cell specific antigen receptor-induced NF-kB activation in a HEK-293T cell line using a luminescence assay. [Related pubchem assays (depositor defined):AID435003, AID435022, AID465, AID489019, AID489029]; assay type: functional, cell-based; settings: Homo sapiens
[11] = OVCAR4 cell viability loss – plate reader, dry powder, SA11, cytotoxicity control for PAX8 inhibitor project, dose response (AID 743150); assay type: functional, cell-based; settings: OVCAR-4
Jurkat = assay: SAR Analysis of small molecule inhibitors of both B-cell and T-cell specific antigen receptor-induced NF-kB activation in a Jurkat cell line using a luminescence assay. [Related pubchem assays (depositor defined):AID435003, AID435022, AID465, AID489029]; assay type: functional, cell-based; settings: Homo sapiens
Paired box protein Pax-8 = Paired box protein Pax-8 (Homo sapiens, UniProt Q06710); assay: PAX8 transcriptional activity inhibition in RMG-I – RMG-I cells, luciferase, cherry-pick, dose response (AID 687027); assay type: functional, cell-based;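 also: luciferase reporter driven by Pax8 target thyroperoxidase promoter measured by SteadyGlo luminescence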
[12] = DRD fibroblast viability loss – cell-based, non-viral oncogenic, luminescence, dose response (AID 1934); assay type: functional; settings: Homo sapiens
[13] = system: Streptococcus sp. 'group A'; assay: Streptococcus pyogenes SK(-)GAS viability under kanamycin – luminescence, BacTiterGlo, confirmation, counter-screen for streptokinase expression inhibitor project, dose response (AID 1900); assay type: functional, organism-based
Streptokinase A = molecular target: T2, Streptokinase A (Streptococcus pyogenes serotype M1, UniProt P10520); assay: viability-normalized secreted streptokinase activity reduction – plasminogen activation absorbance, OD405, dose response (AID 1914); assay type: functional, Streptococcus pyogenes M1 GAS;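 also: secreted streptokinase activity via plasminogen activation per viability signal from cell pellet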
T2 sequence (P10520 whole entry): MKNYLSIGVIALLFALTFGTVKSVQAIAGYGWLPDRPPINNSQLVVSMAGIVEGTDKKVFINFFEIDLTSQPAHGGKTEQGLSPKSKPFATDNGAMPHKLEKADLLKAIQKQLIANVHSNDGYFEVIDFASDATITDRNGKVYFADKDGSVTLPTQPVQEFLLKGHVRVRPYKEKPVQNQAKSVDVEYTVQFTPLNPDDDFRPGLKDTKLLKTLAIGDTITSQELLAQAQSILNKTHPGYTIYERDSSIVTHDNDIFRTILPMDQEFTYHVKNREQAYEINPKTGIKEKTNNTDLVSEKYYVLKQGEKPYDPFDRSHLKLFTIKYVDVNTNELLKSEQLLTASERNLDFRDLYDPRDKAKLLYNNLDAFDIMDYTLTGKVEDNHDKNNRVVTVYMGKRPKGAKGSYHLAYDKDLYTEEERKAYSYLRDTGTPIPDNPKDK

Beta-galactosidase = Beta-galactosidase (Escherichia coli, UniProt Q8VNN2); assay: PubChem AID 485352; assay type: functional
[14] = general cell-killing toxicity readout – plate reader, dry powder samples, cytotoxicity control for PAX8 inhibitor project, dose response (AID 743021); assay type: functional, cell-based
BJ [15] = assay: cells; assay type: functional, cell-based; settings: Homo sapiens
BJ [16] = assay: BJ-TERT-LT-ST fibroblast viability loss – cell-based, RAS-independent, luminescence, dose response (AID 1935); assay type: functional; settings: Homo sapiens;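 also: BJ fibroblasts immortalized with TERT plus LT and ST oncogenes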
BJ [17] = assay: growth inhibition of engineered Ras-driven BJ cells – cell-based, alamar blue fluorescence, cherrypicked samples, dose response (AID 2631); assay type: functional; settings: Homo sapiens;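 also: confirmatory dose-response assay in RAS-dependent BJ fibroblasts engineered with TERT, LT and ST, with cytotoxicity read by fluorescence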
[18] = A2780 cell killing – plate reader, dry powder samples, cytotoxicity control, dose response (AID 743046); assay type: functional, cell-based
[19] = HEK-293T viability loss after treatment – luminescence, T-cell screen hits, cytotoxicity control for TCR NF-kB inhibitor project, dose response (AID 489026); assay type: functional, cell-based;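 also: cells exposed to compound about 14 hours before the viability readout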
[20] = PAX8-dependent cell viability loss – plate reader, dry powder, dose response (AID 743049); assay type: functional, cell-based
BJ [21] = assay: BJ-TERT fibroblast viability loss – cell-based, RAS-independent, luminescence, dose response (AID 1933); assay type: functional; settings: Homo sapiens
CAAX prenyl protease 2 [22] = molecular target: T3, CAAX prenyl protease 2 (Saccharomyces cerevisiae S288c, UniProt Q03530); assay type: biochemical
T3 sequence (Q03530 whole entry): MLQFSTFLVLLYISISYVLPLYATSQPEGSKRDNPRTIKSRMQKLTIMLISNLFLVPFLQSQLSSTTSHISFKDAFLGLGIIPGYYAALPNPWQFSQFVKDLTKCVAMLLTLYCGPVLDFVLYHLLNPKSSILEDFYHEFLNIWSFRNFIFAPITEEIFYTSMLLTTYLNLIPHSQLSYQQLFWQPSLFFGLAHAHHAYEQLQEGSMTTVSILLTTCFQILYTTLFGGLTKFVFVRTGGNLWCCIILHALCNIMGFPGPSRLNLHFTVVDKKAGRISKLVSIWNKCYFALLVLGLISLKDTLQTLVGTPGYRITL

CAAX prenyl protease 2 [23] = molecular target: T3, CAAX prenyl protease 2; assay: inhibition of Rce1p peptide cleavage – biochemical, plate reader, dry powder retest, dose response (AID 588851)
CAAX prenyl protease 2 [24] = molecular target: CAAX prenyl protease 2 (Homo sapiens, UniProt Q9Y256); assay: inhibition of Ras-converting CAAX endoprotease – biochemical, plate reader, dry powder samples, dose response (AID 588848)
[25] = NIH-3T3 fibroblast cytotoxicity, dose response, cytotoxicity control, cell-based, fluorescence, Alamar Blue, secondary assay (AID 2327); assay type: functional;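 also: NIH-3T3 mouse fibroblasts cultured with fluconazole at 8 µg/mL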
[26] = molecular target: Beta-adrenergic receptor kinase 1 (Homo sapiens, UniProt P25098); assay: aptamer displacement from bead-bound GRK2 – biochemical, cherry pick 1, bead flow cytometry, dose response (AID 504500)
[27] = alpha-synuclein stem-loop luciferase translation blockers – H4 neuroglioma cells, luminescence, confirmation (AID 1988); assay type: functional, cell-based
[28] = molecular target: E3 ubiquitin-protein ligase XIAP (Homo sapiens, UniProt P98170); assay: Counter Screen using XIAP-Bir3 for Chemical Antagonists of Bir1/2 domains of IAP-family anti-apoptotic proteins. [Related pubchem assays (depositor defined):AID1018, AID1449, AID1514, AID1638, AID1749, AID1750, AID488957, AID488963]
Large T antigen = Large T antigen (Simian virus 40, UniProt P03070); assay type: functional, Betapolyomavirus macacae;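 also: Confirmatory-stage PubChem screen for compounds that inhibit SV40 T antigen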
[29] = fluconazole-exposed Candida albicans growth modulators – fluorescence, retest, confirmation (AID 2467); assay type: functional, cell-based
[30] = luciferase reporter signal suppression in cells – H4 neuroglioma cells, luminescence, dose response (AID 1990); assay type: functional, cell-based
[31] = molecular target: Dual specificity protein kinase CLK1 (Homo sapiens, UniProt P49759); assay: inhibition of human CLK1 activity – biochemical, cherry-picked samples, selectivity assay for Dyrk1A inhibitor project, dose response (AID 588811)
[32] = molecular target: T4, Beta-2 adrenergic receptor (Homo sapiens, UniProt P07550); assay: ADRB2 activation measured by internalization – cell-based, FAP fluorogen, flow cytometry, cherry pick 1, dose response (AID 588763); assay type: functional
[33] = molecular target: T4, Beta-2 adrenergic receptor; assay: Dose response for HTS for Beta-2AR agonists via FAP method from Powderset1.; assay type: functional
[34] = Trypanosoma cruzi growth suppression in host cells – NIH3T3 host cells, beta-gal luminescence, confirmation (AID 2044); assay type: functional, cell-based;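 also: intracellular parasites grown in NIH/3T3 mouse fibroblasts as host cells; luminescent beta-galactosidase reporter signal from transgenic T. cruzi replicating inside host cells; inhibitors lower the luminescence signal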
[35] = NIH3T3 cell viability loss – ATP luminescence, mouse fibroblasts, counter-screen, dose response (AID 2010); assay type: functional, cell-based;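 also: cells exposed to compound for about 90 hours before reading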
[36] = Luminescence Cell-Based Dose Response HTS to Identify Inhibitors of 5'UTR Stem-Loop Driven Prion Protein mRNA Translation in H4 Neuroglioblastoma Cells. [Related pubchem assays: 1827 (Project Summary), 1813 (Primary HTS)]; assay type: functional
DNA topoisomerase = DNA topoisomerase (Yersinia pestis, UniProt A0A2S9PM60); assay: Yersinia topoisomerase I cleavage product accumulation – biochemical, cherry-pick, dose response (AID 588525)
[37] = molecular target: Voltage-gated inwardly rectifying potassium channel KCNH2 (Homo sapiens, UniProt Q12809); settings: Potency;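 also: confirmatory quantitative high-throughput screen measuring inhibition of hERG channel activity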
[38] = molecular target: Aryl hydrocarbon receptor (Homo sapiens, UniProt P35869); settings: Potency;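 also: confirmatory quantitative high-throughput screen measuring activation of the AhR signaling pathway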
[39] = THP-1 cell cytotoxicity, cytotoxicity control, set 6 (AID 602433); assay type: functional; settings: Mycobacterium tuberculosis

T4 sequence (P07550 whole entry): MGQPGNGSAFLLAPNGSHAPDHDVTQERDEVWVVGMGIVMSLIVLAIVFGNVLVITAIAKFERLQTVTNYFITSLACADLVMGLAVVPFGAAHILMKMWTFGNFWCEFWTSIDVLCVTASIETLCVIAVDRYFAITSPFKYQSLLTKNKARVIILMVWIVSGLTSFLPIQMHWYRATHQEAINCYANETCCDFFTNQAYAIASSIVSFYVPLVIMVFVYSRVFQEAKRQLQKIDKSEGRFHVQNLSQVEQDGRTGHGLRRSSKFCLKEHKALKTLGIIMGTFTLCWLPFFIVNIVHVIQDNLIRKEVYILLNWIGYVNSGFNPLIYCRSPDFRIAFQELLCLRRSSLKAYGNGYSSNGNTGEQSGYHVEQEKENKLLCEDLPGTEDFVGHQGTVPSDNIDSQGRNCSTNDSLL
Chain of CAAX prenyl protease 2 (Homo sapiens, UniProt Q9Y256) (Q9Y256 whole entry): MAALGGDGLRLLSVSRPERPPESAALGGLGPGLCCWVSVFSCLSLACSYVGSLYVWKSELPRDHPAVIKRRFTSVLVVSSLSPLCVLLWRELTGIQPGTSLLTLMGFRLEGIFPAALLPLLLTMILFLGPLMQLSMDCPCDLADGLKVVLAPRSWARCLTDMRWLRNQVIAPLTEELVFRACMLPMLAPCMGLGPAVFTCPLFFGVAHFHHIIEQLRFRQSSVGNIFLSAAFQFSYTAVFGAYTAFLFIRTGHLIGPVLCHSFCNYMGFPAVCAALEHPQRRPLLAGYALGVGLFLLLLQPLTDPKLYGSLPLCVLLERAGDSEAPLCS
Chain of Voltage-gated inwardly rectifying potassium channel KCNH2 (Q12809 whole entry): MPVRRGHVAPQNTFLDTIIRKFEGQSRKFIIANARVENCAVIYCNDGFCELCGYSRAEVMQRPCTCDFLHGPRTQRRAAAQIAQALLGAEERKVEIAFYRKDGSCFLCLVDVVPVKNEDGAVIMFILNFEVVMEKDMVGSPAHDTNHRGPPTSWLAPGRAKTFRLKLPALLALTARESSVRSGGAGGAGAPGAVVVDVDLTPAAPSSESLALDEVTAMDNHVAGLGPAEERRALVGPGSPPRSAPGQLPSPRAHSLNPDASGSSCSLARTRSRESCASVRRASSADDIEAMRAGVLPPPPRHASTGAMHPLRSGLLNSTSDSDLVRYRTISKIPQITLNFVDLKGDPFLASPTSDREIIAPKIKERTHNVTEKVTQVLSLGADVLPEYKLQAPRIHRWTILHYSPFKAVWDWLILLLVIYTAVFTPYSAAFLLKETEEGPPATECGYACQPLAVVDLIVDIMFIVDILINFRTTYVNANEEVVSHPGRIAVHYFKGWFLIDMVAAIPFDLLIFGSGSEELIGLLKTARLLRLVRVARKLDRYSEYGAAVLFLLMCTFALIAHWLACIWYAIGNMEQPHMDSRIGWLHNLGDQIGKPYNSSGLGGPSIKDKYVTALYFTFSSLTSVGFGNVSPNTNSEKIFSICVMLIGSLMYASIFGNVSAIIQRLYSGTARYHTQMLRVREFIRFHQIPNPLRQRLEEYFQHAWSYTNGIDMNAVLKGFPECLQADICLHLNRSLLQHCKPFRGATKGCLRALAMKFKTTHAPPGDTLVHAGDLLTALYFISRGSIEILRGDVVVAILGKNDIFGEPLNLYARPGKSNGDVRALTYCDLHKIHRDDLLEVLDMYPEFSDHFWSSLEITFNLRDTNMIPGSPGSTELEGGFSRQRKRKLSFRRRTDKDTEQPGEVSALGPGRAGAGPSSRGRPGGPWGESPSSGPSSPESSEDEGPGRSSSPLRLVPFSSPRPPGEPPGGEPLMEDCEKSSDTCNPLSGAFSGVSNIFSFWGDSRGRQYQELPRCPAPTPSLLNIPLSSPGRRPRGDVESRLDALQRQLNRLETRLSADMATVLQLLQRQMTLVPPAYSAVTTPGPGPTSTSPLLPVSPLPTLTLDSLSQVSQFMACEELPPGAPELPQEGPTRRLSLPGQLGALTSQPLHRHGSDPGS
Chain of Aryl hydrocarbon receptor (P35869 whole entry): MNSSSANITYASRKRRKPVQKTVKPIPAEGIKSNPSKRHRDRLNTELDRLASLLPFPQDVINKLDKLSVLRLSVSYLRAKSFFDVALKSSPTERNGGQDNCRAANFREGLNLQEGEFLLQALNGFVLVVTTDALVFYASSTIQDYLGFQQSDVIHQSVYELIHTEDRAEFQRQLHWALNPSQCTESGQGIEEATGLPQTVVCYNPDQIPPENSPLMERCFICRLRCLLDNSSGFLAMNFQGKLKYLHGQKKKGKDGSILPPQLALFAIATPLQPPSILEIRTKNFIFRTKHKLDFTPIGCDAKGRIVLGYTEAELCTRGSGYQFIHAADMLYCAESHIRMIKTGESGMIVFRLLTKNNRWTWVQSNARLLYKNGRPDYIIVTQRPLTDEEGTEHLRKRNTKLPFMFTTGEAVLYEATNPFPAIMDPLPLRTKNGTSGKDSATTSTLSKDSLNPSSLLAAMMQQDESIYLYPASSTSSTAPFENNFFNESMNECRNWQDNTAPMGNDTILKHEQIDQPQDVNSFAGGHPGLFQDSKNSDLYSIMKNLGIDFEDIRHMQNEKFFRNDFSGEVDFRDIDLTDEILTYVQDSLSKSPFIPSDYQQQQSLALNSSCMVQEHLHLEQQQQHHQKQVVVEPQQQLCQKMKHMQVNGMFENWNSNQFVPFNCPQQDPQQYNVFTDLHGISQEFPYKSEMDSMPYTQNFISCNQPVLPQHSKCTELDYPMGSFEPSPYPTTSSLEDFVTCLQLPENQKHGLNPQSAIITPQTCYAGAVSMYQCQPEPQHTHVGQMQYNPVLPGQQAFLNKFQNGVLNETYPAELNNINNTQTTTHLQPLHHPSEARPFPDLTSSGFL
Chain of Large T antigen (P03070 whole entry): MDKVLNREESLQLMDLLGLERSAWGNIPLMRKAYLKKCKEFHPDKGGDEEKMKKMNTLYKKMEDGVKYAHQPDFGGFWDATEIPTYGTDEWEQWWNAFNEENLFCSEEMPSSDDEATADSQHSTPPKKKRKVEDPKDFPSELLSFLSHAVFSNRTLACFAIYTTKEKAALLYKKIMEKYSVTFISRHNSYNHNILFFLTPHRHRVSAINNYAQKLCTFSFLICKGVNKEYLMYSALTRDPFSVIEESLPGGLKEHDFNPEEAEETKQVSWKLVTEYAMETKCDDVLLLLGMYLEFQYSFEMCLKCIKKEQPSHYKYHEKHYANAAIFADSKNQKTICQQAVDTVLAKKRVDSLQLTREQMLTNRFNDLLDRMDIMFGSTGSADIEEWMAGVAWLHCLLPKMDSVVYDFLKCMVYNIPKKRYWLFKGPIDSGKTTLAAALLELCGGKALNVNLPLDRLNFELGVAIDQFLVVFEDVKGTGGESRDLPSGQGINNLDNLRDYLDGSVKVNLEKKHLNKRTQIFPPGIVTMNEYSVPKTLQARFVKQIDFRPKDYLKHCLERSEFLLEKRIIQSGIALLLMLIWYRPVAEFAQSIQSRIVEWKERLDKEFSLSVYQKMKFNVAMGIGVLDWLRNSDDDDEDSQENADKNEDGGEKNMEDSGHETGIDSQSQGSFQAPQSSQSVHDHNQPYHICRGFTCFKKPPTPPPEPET
Chain of E3 ubiquitin-protein ligase XIAP (P98170 whole entry): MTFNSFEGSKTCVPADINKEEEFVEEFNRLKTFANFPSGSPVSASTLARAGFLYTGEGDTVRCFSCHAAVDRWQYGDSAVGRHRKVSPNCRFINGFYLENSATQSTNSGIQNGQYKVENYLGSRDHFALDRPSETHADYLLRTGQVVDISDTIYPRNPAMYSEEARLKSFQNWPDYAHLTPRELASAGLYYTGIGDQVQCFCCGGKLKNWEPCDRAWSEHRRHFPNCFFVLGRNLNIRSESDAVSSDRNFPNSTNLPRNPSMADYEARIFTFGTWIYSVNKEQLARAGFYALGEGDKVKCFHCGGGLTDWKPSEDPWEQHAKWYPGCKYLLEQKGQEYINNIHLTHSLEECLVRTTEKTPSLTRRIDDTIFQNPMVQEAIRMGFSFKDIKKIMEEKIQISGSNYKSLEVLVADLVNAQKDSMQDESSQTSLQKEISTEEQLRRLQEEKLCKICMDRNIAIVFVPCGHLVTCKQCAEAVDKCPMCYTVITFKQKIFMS
Chain of DNA topoisomerase (A0A2S9PM60 whole entry): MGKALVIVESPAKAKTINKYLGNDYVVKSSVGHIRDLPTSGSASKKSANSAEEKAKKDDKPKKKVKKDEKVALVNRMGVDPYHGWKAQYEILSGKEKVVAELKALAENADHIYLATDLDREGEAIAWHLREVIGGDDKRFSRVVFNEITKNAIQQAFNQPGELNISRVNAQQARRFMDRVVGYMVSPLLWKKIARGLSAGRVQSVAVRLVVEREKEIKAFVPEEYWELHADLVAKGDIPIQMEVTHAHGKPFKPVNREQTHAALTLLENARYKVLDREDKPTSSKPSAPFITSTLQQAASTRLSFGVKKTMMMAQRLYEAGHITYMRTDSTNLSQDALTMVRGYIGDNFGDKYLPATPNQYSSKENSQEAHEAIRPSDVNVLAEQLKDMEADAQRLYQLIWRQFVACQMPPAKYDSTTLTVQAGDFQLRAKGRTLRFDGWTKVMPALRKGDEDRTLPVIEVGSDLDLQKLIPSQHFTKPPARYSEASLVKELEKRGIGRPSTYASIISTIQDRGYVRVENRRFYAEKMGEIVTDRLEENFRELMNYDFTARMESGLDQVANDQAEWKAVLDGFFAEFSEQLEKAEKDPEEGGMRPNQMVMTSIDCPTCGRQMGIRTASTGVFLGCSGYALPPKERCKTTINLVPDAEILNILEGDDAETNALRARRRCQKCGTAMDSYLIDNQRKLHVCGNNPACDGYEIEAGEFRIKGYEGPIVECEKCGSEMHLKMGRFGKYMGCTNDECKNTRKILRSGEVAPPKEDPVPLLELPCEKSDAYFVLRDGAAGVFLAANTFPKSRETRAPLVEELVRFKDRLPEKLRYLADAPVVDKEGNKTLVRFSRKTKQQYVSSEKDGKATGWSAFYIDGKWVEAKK

## Cc1ccc2cccc(NS(=O)(=O)c3ccccc3)c2n1
[1]
  IC50: 0.589 µM (active)
[2]
  AC50: 5.65 µM (active)
[3]
  AC50: 49.5 µM (active)
[4]
  AC50: 10.7 µM (active)
[5]
  AC50: 17.3 µM (active)
[6]
  IC50: 2.35 µM (active)
Streptococcus
  EC50: > 150 µM (not active)
[7]
  AC50: 14 µM (active)
HEK293 [8]
  IC50: > 80 µM (inactive)
[9]
  AC50: 8.75 µM (active)
HEK293 [10]
  IC50: > 79 µM (inactive)
[11]
  AC50: 21.1 µM (active)
Jurkat
  IC50: 1.21 µM (active)
Paired box protein Pax-8
  AC50: 5.74 µM (active)
[12]
  EC50: 21.6 µM (active)
[13]
  EC50: 5.1 µM (active)
Streptokinase A
  EC50: > 150 µM (not active)
Beta-galactosidase
  EC50: > 40 µM (inactive)
[14]
  AC50: 44 µM (active)
BJ [15]
  EC50: 17.8 µM (active)
BJ [16]
  EC50: > 150 µM (not active)
BJ [17]
  EC50: 5.74 µM (active)
[18]
  AC50: 20.5 µM (active)
[19]
  IC50: > 80 µM (inactive)
[20]
  AC50: 15.6 µM (active)
BJ [21]
  EC50: 37.9 µM (active)

## CC(C)c1c(C(=O)N/N=C/c2c[nH]c3ccccc23)nnn1-c1nonc1N
CAAX prenyl protease 2 [22]
  AC50: 0.298 µM (active)
CAAX prenyl protease 2 [23]
  AC50: 3.14 µM (active)
CAAX prenyl protease 2 [24]
  AC50: 29.3 µM (active)

## O=S(=O)(O)c1cc(O)c2c(O)c(N=Nc3cc(Cl)ccc3O)c(S(=O)(=O)O)cc2c1
[25]
  EC50: > 150 µM (inactive)
[26]
  EC50: 16.3 µM (inactive)
[27]
  EC50: 14.8 µM (active)
[28]
  IC50: > 20 µM (inactive)
Large T antigen
  IC50: 13.4 µM (active)
[29]
  EC50: > 38 µM (not active)
[30]
  EC50: 13.1 µM (active)

## CN(C)c1ccc(-c2nccc(NCc3cccs3)n2)cc1
[31]
  AC50: 0.265 µM (active)

## CSc1ccc(CN2CCC(Oc3ccc(C(=O)N4CCCC4)cc3)CC2)cc1
[32]
  EC50: 1.39 µM (active)
[33]
  EC50: 0.348 µM (active)

## O=C(CSc1nnc(COc2ccc(Cl)cc2)o1)N1c2ccccc2CCc2ccccc21
[34]
  EC50: 0.625 µM (active)
[35]
  EC50: < 6 µM (inconclusive)
[27]
  EC50: 15.2 µM (active)
[36]
  EC50: 21.5 µM (active)
[30]
  EC50: 23.5 µM (active)
DNA topoisomerase
  AC50: 10.2 µM (active)

## COP(=S)(OC)Oc1ccc(SC)c(C)c1 [FENTHION]
[37]
  AC50: 22.4 µM (inconclusive)
[38]
  AC50: 50.1 µM (inconclusive)

## O=C(CSc1nc2ccccc2c(=O)[nH]1)NC1CCOCC1
[39]
  CC50: > 100 µM (inconclusive)
